Target: T1, adenosine A2a receptor (Homo sapiens, UniProt P29274)
T1 construct: expressed in transfected cells; host or cells: CHO cells, transient lipofection
Test: Screening of adenosine A2a receptor antagonist using change in cAMP level as index
Format: cell-based
Conditions: 10 μM test substance with 10 μM adenosine, CHO cells with A2a receptor and Gm1, cAMP level
Experimental: Then, 10 μM of adenosine as a GPCR ligand and 10 μM of a test substance (DMPX) were added and incubated at 37° C. for 30 minutes.
A substance which gave a cAMP level percentage of 85% or less upon contact of the cell with the ligand and the test substance was selected as a signal transduction inhibitor (antagonist), on the basis of the cAMP level with no contact being 0% and the cAMP level with the contact of the cell only with the ligand being 100% (FIG. 4).

T1 sequence (P29274 whole entry): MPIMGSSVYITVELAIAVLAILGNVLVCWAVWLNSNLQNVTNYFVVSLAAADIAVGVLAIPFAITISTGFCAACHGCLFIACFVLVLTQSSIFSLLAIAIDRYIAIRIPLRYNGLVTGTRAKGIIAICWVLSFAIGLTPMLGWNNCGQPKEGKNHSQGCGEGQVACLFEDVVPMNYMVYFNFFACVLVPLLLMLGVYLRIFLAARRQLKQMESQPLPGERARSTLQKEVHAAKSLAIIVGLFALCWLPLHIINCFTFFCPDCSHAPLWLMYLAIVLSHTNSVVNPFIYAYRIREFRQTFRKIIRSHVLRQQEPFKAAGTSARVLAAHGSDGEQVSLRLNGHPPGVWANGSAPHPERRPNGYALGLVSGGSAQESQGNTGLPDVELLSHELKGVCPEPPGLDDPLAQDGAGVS

C#CCn1c(=O)c2c(ncn2C)n(C)c1=O [DMPX]
adenosine A2a receptor antagonistic effects (FIG. 4): antagonistic effects

Reference: US7893203B2, “Protein involved in G protein-coupled receptor mediated signal transduction with ability to mediate signal transduction from a dopamine D1 receptor or an adenosine A2A receptor to an adenylate cyclase and utilization thereof” (Sumitomo Chemical Company, Ltd., priority 2002, dated 2011)
